From patent publication US20100035996A1, “GLUCOSE METABOLISM STIMULATING AGENT” (Shionogi & Co Ltd, priority 2006, published 2010)

Tests used:
Format in all cases: in vivo
male C57BL/6J-ob/ob mice [1] = test: Glucose tolerance test in obesity model mice, short-term administration; settings: 100 mg/kg oral gavage
Experimental: (§1) The following Examples 1 to 3 were carried out in an obesity model mouse, male C57BL/6J-ob/ob mice (12-17 week old, 40-60 g) to study the effect of Compound (a) on glucose metabolism in mice.
Compound (a) was administered to mice for short term and then glucose tolerance test was performed. In the morning (8:00-10:00) of the previous day of the test, hydroxypropylmethyl cellulose solution (0.5% w/v, Shin-Etsu Chemical Co., Ltd) or Compound (a) at 100 mg/kg suspended in the solution was administered by oral gavage. Food was removed just after the administration. Mice were kept under fasting until the end of glucose tolerance test. In this period, the mice were allowed free access to water. The oral administration was also performed in the evening of the previous day of the test (17:00-18:00) and in the morning of the day of the test (8:00-9:00). Glucose tolerance test was carried out in the afternoon (13:00-16:00), and AUC was calculated as described in Example 1 (FIG. 3).

male C57BL/6J-ob/ob mice [2] = test: Glucose tolerance test in obesity model mice, administration for 4 weeks; settings: for AUC of plasma glucose levels in glucose tolerance test: oral glucose 2 g/kg, 0-120 min, control 29863
Experimental: as §1
(§2) Hydroxypropylmethyl cellulose solution (0.5% w/v, Shin-Etsu Chemical Co., Ltd) or Compound (a) or (b) suspended in the solution were orally administered at 25, 50 or 100 mg/kg twice a day (8:00-10:00, 16:30-18:00) for 4 weeks. Food was removed in the morning (8:00-9:00) of the last day of administration. Mice were kept under fasting until the end of glucose tolerance test. In this period, the mice were allowed free access to water. The next day, glucose tolerance test was carried out in the afternoon (13:00-16:00). Blood was collected from tail veins just before and at 15, 30, 60 and 120 minutes after oral administration of glucose (2 g/kg) to examine plasma glucose levels. AUC (area under the curve) was calculated by the trapezoidal method from the graphs made with obtained values (FIG. 1). AUCs in mice treated with Compound (a) at 25 mg/kg, 50 mg/kg and 100 mg/kg were 25610 mg·min/dL, 20315 mg·min/dL and 15848 mg·min/dL, respectively. AUC in control mice (dosed with 0.5% hydroxypropylmethyl cellulose solution) was 29863 mg·min/dL.

male C57BL/6J-ob/ob mice [3] = test: Body weight change during the 4-week dosing period; settings: 25, 50 or 100 mg/kg orally twice a day for 4 weeks (FIG. 2)
Experimental: as §1, §2

male C57BL/6J-ob/ob mice [4] = test: Glucose tolerance test in obesity model mice, administration for 1 week; settings: 100 mg/kg orally twice a day for a week
Experimental: as §1
Hydroxypropylmethyl cellulose solution (0.5% w/v, Shin-Etsu Chemical Co., Ltd) or Compound (b) suspended in the solution were orally administered at 100 mg/kg twice a day (8:00-10:00, 16:30-18:00) for a week. Food was removed in the morning (8:00-9:00) of the last day of administration. Mice were kept under fasting until the end of glucose tolerance test. In this period, the mice were allowed free access to water. The next day, glucose tolerance test was carried out in the afternoon (13:00-16:00) and then AUC was calculated as described in Example 1 (FIG. 4).

[5] = 100 mg/kg orally twice a day for 4 weeks

| SMILES | AUC of plasma glucose levels in glucose tolerance test (male C57BL/6J-ob/ob mice [1]; three doses (morning and evening of previous day, morning of test day), control 15033) | AUC compared to control mice (male C57BL/6J-ob/ob mice [1]; three doses, short term) | AUC of plasma glucose levels in glucose tolerance test (male C57BL/6J-ob/ob mice [2]; 25 mg/kg orally twice a day for 4 weeks) | AUC of plasma glucose levels in glucose tolerance test (male C57BL/6J-ob/ob mice [2]; 50 mg/kg orally twice a day for 4 weeks) | AUC compared to control mice (male C57BL/6J-ob/ob mice [2]; [5]) | AUC of plasma glucose levels in glucose tolerance test (male C57BL/6J-ob/ob mice [2]; [5]) | AUC change across doses (male C57BL/6J-ob/ob mice [2]; 25, 50, 100 mg/kg orally twice a day for 4 weeks) | Change in body weight during the dosing period (male C57BL/6J-ob/ob mice [3]) | AUC compared to control mice (male C57BL/6J-ob/ob mice [4]) | AUC of plasma glucose levels in glucose tolerance test (male C57BL/6J-ob/ob mice [4]; control 22532) |
| --- | --- | --- | --- | --- | --- | --- | --- | --- | --- | --- |
| CC(C)(C)S(=O)(=O)N[C@H]1CC[C@H](C(=O)Nc2ccc(C(F)(F)F)cn2)CC1 [Compound (a)] | 22423 mg·min/dL | statistically significant decrease | 25610 mg·min/dL | 20315 mg·min/dL | statistically significant decrease | 15848 mg·min/dL | decreased with dose-dependent manner | no statistically significant change | – | – |
| CCS(=O)(=O)N[C@H]1CC[C@H](C(=O)Nc2ccc(N3C[C@@H](C)O[C@@H](C)C3)cc2)CC1 [Compound (b)] | – | – | – | – | – | – | – | – | statistically significant decrease | 15546 mg·min/dL |
